# Where two headings read alike, the source gives them in different places.
# System: A. non-baumannii isolates (n = 87)
# Assay: MIC, broth microdilution (EUCAST), A. non-baumannii isolates
# Assay type: cell-based, Acinetobacter spp. (non-baumannii)
# Conditions: for MIC: read-out: MIC
# Outline: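 Broth microdilution per EUCAST v.15 guidelines on clinical Acinetobacter isolates from a Spanish 2020 multicenter collection; enmetazobactam also tested alone. A. baumannii ATCC 19606 served as reference strain, in duplicate assays.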
# [1] = Acinetobacter, A. non-baumannii isolates (n=87), ETZ fixed 8 mg/L in combinations
smiles,measurement,setting,value
C[n+]1ccn(C[C@@]2(C)[C@H](C(=O)[O-])N3C(=O)C[C@H]3S2(=O)=O)n1 [enmetazobactam],MIC,"Acinetobacter pittii, isolate NO-Ab90, Acinetobacter pittii, in combinations ETZ fixed at 8 mg/L",2 µg/mL
same,MIC,"Acinetobacter pittii, isolate NO-Ab97, Acinetobacter pittii, in combinations ETZ fixed at 8 mg/L",2 µg/mL
same,MIC,"Acinetobacter pittii, isolate NO-Ab105, Acinetobacter pittii, in combinations ETZ fixed at 8 mg/L",2 µg/mL
same,MIC,"Acinetobacter pittii, isolate NO-Ab106, Acinetobacter pittii, in combinations ETZ fixed at 8 mg/L",2 µg/mL
same,MIC,"Acinetobacter pittii, isolate NO-Ab107, Acinetobacter pittii, in combinations ETZ fixed at 8 mg/L",1 µg/mL
same,MIC,"Acinetobacter pittii, isolate NO-Ab111, Acinetobacter pittii, in combinations ETZ fixed at 8 mg/L",2 µg/mL
same,MIC,"Acinetobacter pittii, isolate NO-Ab113, Acinetobacter pittii, in combinations ETZ fixed at 8 mg/L",2 µg/mL
same,MIC,"Acinetobacter pittii, isolate NO-Ab118, Acinetobacter pittii, in combinations ETZ fixed at 8 mg/L",2 µg/mL
same,MIC,"Acinetobacter pittii, isolate NO-Ab135, Acinetobacter pittii, in combinations ETZ fixed at 8 mg/L",2 µg/mL
same,MIC,"Acinetobacter pittii, isolate NO-Ab145, Acinetobacter pittii, in combinations ETZ fixed at 8 mg/L",2 µg/mL
same,MIC,"Acinetobacter pittii, isolate NO-Ab151, Acinetobacter pittii, in combinations ETZ fixed at 8 mg/L",4 µg/mL
same,MIC,"Acinetobacter pittii, isolate NO-Ab154, Acinetobacter pittii, in combinations ETZ fixed at 8 mg/L",2 µg/mL
same,MIC,"Acinetobacter pittii, isolate NO-Ab157, Acinetobacter pittii, in combinations ETZ fixed at 8 mg/L",4 µg/mL
same,MIC,"Acinetobacter pittii, isolate NO-Ab162, Acinetobacter pittii, in combinations ETZ fixed at 8 mg/L",4 µg/mL
same,MIC,"Acinetobacter pittii, isolate NO-Ab164, Acinetobacter pittii, in combinations ETZ fixed at 8 mg/L",2 µg/mL
same,MIC,"Acinetobacter pittii, isolate NO-Ab178, Acinetobacter pittii, in combinations ETZ fixed at 8 mg/L",2 µg/mL
same,MIC,"Acinetobacter pittii, isolate NO-Ab197, Acinetobacter pittii, in combinations ETZ fixed at 8 mg/L",2 µg/mL
same,MIC,"Acinetobacter proteolyticus, isolate NO-Ab99, Acinetobacter proteolyticus, in combinations ETZ fixed at 8 mg/L",2 µg/mL
same,MIC,"Acinetobacter proteolyticus, isolate NO-Ab102, Acinetobacter proteolyticus, in combinations ETZ fixed at 8 mg/L",4 µg/mL
same,MIC,"Acinetobacter proteolyticus, isolate NO-Ab210, Acinetobacter proteolyticus, in combinations ETZ fixed at 8 mg/L",1 µg/mL
same,MIC,"Acinetobacter radioresistens, isolate NO-Ab175, Acinetobacter radioresistens, in combinations ETZ fixed at 8 mg/L",1 µg/mL
same,MIC,"Acinetobacter radioresistens, isolate NO-Ab215, Acinetobacter radioresistens, in combinations ETZ fixed at 8 mg/L",0.5 µg/mL
same,MIC,"Acinetobacter ursingii, isolate NO-Ab3, Acinetobacter ursingii, in combinations ETZ fixed at 8 mg/L",0.25 µg/mL
same,MIC,"Acinetobacter ursingii, isolate NO-Ab64, Acinetobacter ursingii, in combinations ETZ fixed at 8 mg/L",1 µg/mL
same,MIC,"Acinetobacter ursingii, isolate NO-Ab87, Acinetobacter ursingii, in combinations ETZ fixed at 8 mg/L",0.5 µg/mL
same,MIC,"Acinetobacter ursingii, isolate NO-Ab103, Acinetobacter ursingii, in combinations ETZ fixed at 8 mg/L",0.5 µg/mL
same,MIC,"Acinetobacter ursingii, isolate NO-Ab119, Acinetobacter ursingii, in combinations ETZ fixed at 8 mg/L",8 µg/mL
same,MIC,"Acinetobacter ursingii, isolate NO-Ab120, Acinetobacter ursingii, in combinations ETZ fixed at 8 mg/L",1 µg/mL
same,MIC,"Acinetobacter ursingii, isolate NO-Ab123, Acinetobacter ursingii, in combinations ETZ fixed at 8 mg/L",2 µg/mL
same,MIC,"Acinetobacter ursingii, isolate NO-Ab126, Acinetobacter ursingii, in combinations ETZ fixed at 8 mg/L",0.5 µg/mL
same,MIC,"Acinetobacter ursingii, isolate NO-Ab147, Acinetobacter ursingii, in combinations ETZ fixed at 8 mg/L",4 µg/mL
same,MIC,"Acinetobacter ursingii, isolate NO-Ab155, Acinetobacter ursingii, in combinations ETZ fixed at 8 mg/L",4 µg/mL
same,MIC,"Acinetobacter ursingii, isolate NO-Ab165, Acinetobacter ursingii, in combinations ETZ fixed at 8 mg/L",2 µg/mL
same,MIC,"Acinetobacter ursingii, isolate NO-Ab166, Acinetobacter ursingii, in combinations ETZ fixed at 8 mg/L",0.5 µg/mL
same,MIC,"Acinetobacter ursingii, isolate NO-Ab214, Acinetobacter ursingii, in combinations ETZ fixed at 8 mg/L",0.5 µg/mL
same,MIC,"Acinetobacter ursingii, isolate NO-Ab221, Acinetobacter ursingii, in combinations ETZ fixed at 8 mg/L",1 µg/mL
same,MIC,"Acinetobacter ursingii, isolate NO-Ab222, Acinetobacter ursingii, in combinations ETZ fixed at 8 mg/L",1 µg/mL
same,MIC,"Acinetobacter, MBC set, isolate NO-Ab84, A. bereziniae",1 µg/mL
same,MIC,"Acinetobacter, MBC set, isolate NO-Ab88, A. dijkshoorniae",2 µg/mL
same,MIC,"Acinetobacter, isolate NO-Ab146, Acinetobacter iwoffii, in combinations ETZ fixed at 8 mg/L",4 µg/mL
same,MIC,"Acinetobacter, isolate NO-Ab159, Acinetobacter iwoffii, in combinations ETZ fixed at 8 mg/L",2 µg/mL
same,MIC50,[1],2 µg/mL
same,MIC90,[1],4 µg/mL
same,MIC distribution 0.25,"cumulative share of A. non-baumannii isolates (n=87) at MIC 0.25 mg/L, ETZ fixed 8 mg/L in combinations",1.1
same,MIC distribution 0.5,"cumulative share of A. non-baumannii isolates (n=87) at MIC 0.5 mg/L, ETZ fixed 8 mg/L in combinations",9.2
same,MIC distribution 1,"cumulative share of A. non-baumannii isolates (n=87) at MIC 1 mg/L, ETZ fixed 8 mg/L in combinations",29.9
same,MIC distribution 2,"cumulative share of A. non-baumannii isolates (n=87) at MIC 2 mg/L, ETZ fixed 8 mg/L in combinations",75.9
same,MIC distribution 4,"cumulative share of A. non-baumannii isolates (n=87) at MIC 4 mg/L, ETZ fixed 8 mg/L in combinations",96.6
same,MIC distribution 8,"cumulative share of A. non-baumannii isolates (n=87) at MIC 8 mg/L, ETZ fixed 8 mg/L in combinations",98.9
same,MIC distribution 16,"cumulative share of A. non-baumannii isolates (n=87) at MIC 16 mg/L, ETZ fixed 8 mg/L in combinations",100
same,MIC distribution 32,"cumulative share of A. non-baumannii isolates (n=87) at MIC 32 mg/L, ETZ fixed 8 mg/L in combinations",100
same,MIC distribution ≤0.06,"cumulative share of A. non-baumannii isolates (n=87) at MIC ≤0.06 mg/L, ETZ fixed 8 mg/L in combinations",0
